Assays:
[1] = test system: 5-HT1C receptor; assay: pharmacological studies, 5-HT1C receptor activity
[2] = test system: patients; assay: double-blind multicenter clinical trial, olanzapine versus placebo; type: in vivo, human; details: patients randomized to olanzapine or placebo
Source text: A double-blind multicenter clinical trial was designed to assess the safety and efficacy of olanzapine. Patients were randomized to olanzapine or placebo.

[3] = test system: muscarinic cholinergic receptor; assay: pharmacological studies, muscarinic cholinergic receptor activity

**Q.** How did the “activity at the 5-HT1C receptor” value [1] turn out when `Cc1cc2c(s1)Nc1ccccc1N=C2N1CCN(C)CC1` [olanzapine, 2-methyl-4-(4-methyl-1-piperazinyl)-10H-thieno[2,3-b][1,5]benzodiazepine] was run?
**A.** active

**Q.** What about the “usefulness for treatment of addictive substance withdrawal (clinical observations)” value [2] of the same molecule?
**A.** can be useful for the treatment of addictive substance withdrawal

**Q.** And the “muscarinic cholinergic receptor activity” value [3]?
**A.** has muscarinic cholinergic receptor activity
